# Data taken from paper PMC7914897, “Cytotoxic Potential of a-Azepano- and 3-Amino-3,4-SeCo-Triterpenoids” (International Journal of Molecular Sciences, 2021).
# Read-outs that look alike come from different tables or passages of the source.
# Key:
# [1] = test system: NCI-H226 (NSC lung cancer); test: NCI-60 screen (SRB, 48 h); conditions: Homo sapiens
# [2] = test system: OVCAR-3 (Ovarian cancer); test: cells; conditions: Homo sapiens
# [3] = test system: PC-3 (Prostate cancer); test: NCI-60 screen (SRB, 48 h); conditions: Homo sapiens
# [4] = test system: SNB-19 (CNS cancer); test: NCI-60 screen (SRB, 48 h); conditions: Homo sapiens
# [5] = test system: panel of approximately 60 cancer cell lines; test: NCI-60 screen (SRB, 48 h), full panel
# [6] = test system: HOP-62 (NSC lung cancer); test: NCI-60 screen (SRB, 48 h); conditions: Homo sapiens
# [7] = test system: SF-268 (CNS cancer); test: NCI-60 screen (SRB, 48 h); conditions: Homo sapiens
# [8] = test system: DU-145 (Prostate cancer); test: NCI-60 screen (SRB, 48 h); conditions: Homo sapiens
# [9] = test system: IGROV1 (Ovarian cancer); test: NCI-60 screen (SRB, 48 h); conditions: Homo sapiens
# [10] = test system: A549/ATCC (NSC lung cancer); test: NCI-60 screen (SRB, 48 h); conditions: Homo sapiens
# [11] = test system: MDA-MB-31/ATCC (Breast cancer); test: NCI-60 screen (SRB, 48 h); conditions: Homo sapiens
# [12] = test system: HCC-2998 (Colon cancer); test: NCI-60 screen (SRB, 48 h); conditions: Homo sapiens
# [13] = test system: HCT-15 (Colon cancer); test: NCI-60 screen (SRB, 48 h); conditions: Homo sapiens
# [14] = test system: Leukemia subpanel; test: cells; conditions: Homo sapiens
# [15] = test system: SK-MEL-5 (Melanoma); test: NCI-60 screen (SRB, 48 h); conditions: Homo sapiens
# [16] = test system: OVCAR-8 (Ovarian cancer); test: NCI-60 screen (SRB, 48 h)
# [17] = test system: UACC-257 (Melanoma); test: NCI-60 screen (SRB, 48 h); conditions: Homo sapiens
# [18] = test system: Renal Cancer subpanel; test: NCI-60 screen, subpanel; conditions: Homo sapiens
# [19] = test system: COLO 205 (Colon cancer); test: NCI-60 screen (SRB, 48 h)
# [20] = test system: NCI-H23 (NSC lung cancer); test: NCI-60 screen (SRB, 48 h); conditions: Homo sapiens
# [21] = test system: UACC-62 (Melanoma); test: NCI-60 screen (SRB, 48 h); conditions: Homo sapiens
# [22] = test system: NCI-H322M (NSC lung cancer); test: NCI-60 screen (SRB, 48 h); conditions: Homo sapiens
# [23] = test system: NCI-H522 (NSC lung cancer); test: NCI-60 screen (SRB, 48 h); conditions: Homo sapiens
# [24] = test system: TK-10 (Renal cancer); test: NCI-60 screen (SRB, 48 h); conditions: Homo sapiens
# [25] = test system: CAKI-1 (Renal cancer); test: NCI-60 screen (SRB, 48 h); conditions: Homo sapiens
# [26] = test system: HS 578T (Breast cancer); test: NCI-60 screen (SRB, 48 h); conditions: Homo sapiens
# [27] = test system: OVCAR-5 (Ovarian cancer); test: NCI-60 screen (SRB, 48 h); conditions: Homo sapiens
smiles,measurement,setting,value
CC(C)=C1CCC=C2CC[C@]3(C)[C@H](CC[C@@H]4[C@@]5(C)CCCNC(C)(C)[C@@H]5CC[C@]43C)[C@H]21 [Compound 9],GI50,[1]; NCI-H226,1.79 µM
same,IC (TGI),"[1]; NCI-H226, 48 h, read-out: TGI",3.54 µM
same,GI50,[2]; OVCAR-3,1.91 µM
same,IC (TGI),"[2]; OVCAR-3, 48 h, read-out: TGI",3.37 µM
same,CC50,"[2]; OVCAR-3, read-out: LC50",5.93 µM
same,GI50,[3]; PC-3,1.58 µM
same,IC (TGI),"[3]; PC-3, 48 h, read-out: TGI",3.02 µM
same,CC50,"[3]; PC-3, read-out: LC50",5.78 µM
same,GI50,[4]; SNB-19,1.81 µM
same,IC (TGI),"[4]; SNB-19, 48 h, read-out: TGI",3.36 µM
same,Positive Cytostatic Effect (cell lines with percent growth 0 to 50 / total),[5]; 1 dose 10 µM,15/58
same,Positive Cytotoxic Effect (cell lines with percent growth < 0 / total),[5]; 1 dose 10 µM,24/58
same,number of cancer cell lines the compound was active against,[5]; 1 dose 10 µM,36 cell lines
same,activity at 10 µM,"[5]; Homo sapiens, 48 h, read-out: Mean Growth, %",13.6%
same,activity at 10 µM,"[5]; Homo sapiens, 48 h, read-out: Range of Growth, %",-100 to 107%
same,IC (TGI),"[5]; Homo sapiens, 48 h, read-out: TGI MG_MID60, average over all cell lines",3.35 µM
same,GI50,"[5]; Homo sapiens, read-out: GI50 MG_MID60",1.75 µM
same,GI50,"[5]; Homo sapiens, read-out: GI50 against all human tumor cell lines",< 3 µM
same,GI50,"[5]; Homo sapiens, read-out: GI50 against the most sensitive cell lines",0.2 to 0.94 µM
same,CC50,"[5]; Homo sapiens, read-out: LC50 MG_MID60, average over all cell lines",6.43 µM
same,GI50,[6]; HOP-62,1.7 µM
same,IC (TGI),"[6]; HOP-62, 48 h, read-out: TGI",3.25 µM
same,GI50,[7]; SF-268,1.97 µM
same,IC (TGI),"[7]; SF-268, 48 h, read-out: TGI",3.71 µM
same,CC50,"[7]; SF-268, read-out: LC50",6.98 µM
same,GI50,[8]; DU-145,1.98 µM
same,IC (TGI),"[8]; DU-145, 48 h, read-out: TGI",3.55 µM
same,CC50,"[8]; DU-145, read-out: LC50",6.38 µM
same,GI50,[9]; IGROV-1,1.73 µM
same,IC (TGI),"[9]; IGROV-1, 48 h, read-out: TGI",3.27 µM
same,GI50,[10]; A549,1.79 µM
same,IC (TGI),"[10]; A549, 48 h, read-out: TGI",3.52 µM
same,GI50,[11],1.8 µM
same,IC (TGI),"[11]; 48 h, read-out: TGI",3.47 µM
same,CC50,[11]; read-out: LC50,6.69 µM
same,GI50,[12]; HCC 2998,1.74 µM
same,IC (TGI),"[12]; HCC 2998, 48 h, read-out: TGI",3.19 µM
same,GI50,[13]; HCT-15,1.4 µM
same,IC (TGI),"[13]; HCT-15, 48 h, read-out: TGI",2.81 µM
same,IC (TGI),"[14]; 48 h, read-out: TGI MG_MID",3.59 µM
same,GI50,[14]; read-out: GI50 MG_MID,1.55 µM
same,CC50,[14]; read-out: LC50 MG_MID,7.19 µM
same,GI50,[15]; SK-MEL-5,1.7 µM
same,IC (TGI),"[15]; SK-MEL-5, 48 h, read-out: TGI",3.08 µM
same,CC50,"[15]; SK-MEL-5, read-out: LC50",5.56 µM
same,GI50,"[16]; Homo sapiens, OVCAR-8",2.01 µM
same,IC (TGI),"[16]; Homo sapiens, OVCAR-8, 48 h, read-out: TGI",4.25 µM
same,Growth % of the Most Sensitive Cell Lines,"[16]; OVCAR-8, 1 dose 10 µM",−87.34%
same,GI50,[17]; UACC-257,1.86 µM
same,IC (TGI),"[17]; UACC-257, 48 h, read-out: TGI",3.63 µM
same,CC50,"[17]; UACC-257, read-out: LC50",7.09 µM
same,IC (TGI),"[18]; 48 h, read-out: TGI MG_MID",3.25 µM
same,GI50,[18]; read-out: GI50 MG_MID,1.72 µM
same,CC50,[18]; read-out: LC50 MG_MID,6.03 µM
same,Growth % of the Most Sensitive Cell Lines,"[19]; COLO 205, 1 dose 10 µM",−93.54%
same,GI50,"[19]; Homo sapiens, COLO 205",1.48 µM
same,IC (TGI),"[19]; Homo sapiens, COLO 205, 48 h, read-out: TGI",2.97 µM
same,GI50,[20]; NCI-H23,1.78 µM
same,IC (TGI),"[20]; NCI-H23, 48 h, read-out: TGI",3.37 µM
same,CC50,"[20]; NCI-H23, read-out: LC50",6.39 µM
same,GI50,[21]; UACC-62,1.77 µM
same,IC (TGI),"[21]; UACC-62, 48 h, read-out: TGI",3.22 µM
same,CC50,"[21]; UACC-62, read-out: LC50",5.85 µM
same,GI50,[22],1.68 µM
same,IC (TGI),"[22]; 48 h, read-out: TGI",3.07 µM
same,CC50,[22]; read-out: LC50,5.61 µM
same,GI50,[23]; NCI-H522,1.8 µM
same,IC (TGI),"[23]; NCI-H522, 48 h, read-out: TGI",3.44 µM
same,GI50,[24]; TK-10,1.81 µM
same,IC (TGI),"[24]; TK-10, 48 h, read-out: TGI",3.37 µM
same,CC50,"[24]; TK-10, read-out: LC50",6.3 µM
same,GI50,[25]; CAKI-1,1.69 µM
same,IC (TGI),"[25]; CAKI-1, 48 h, read-out: TGI",3.05 µM
same,CC50,"[25]; CAKI-1, read-out: LC50",5.53 µM
same,GI50,[26],1.79 µM
same,IC (TGI),"[26]; 48 h, read-out: TGI",4.04 µM
same,CC50,[26]; read-out: LC50,9.11 µM
same,GI50,[27]; OVCAR-5,1.67 µM
same,IC (TGI),"[27]; OVCAR-5, 48 h, read-out: TGI",3.07 µM
same,CC50,"[27]; OVCAR-5, read-out: LC50",5.65 µM
